{
  "source": "PubChem BioAssay AID1996",
  "data": [
    {"settings": "buffer; pH 7.4; 200.0 µM", "units": {"solubility kinetic": "µg/mL"}, "values": [
      {"smiles": "CSc1ncccc1C(=O)Nc1ccccc1N1CCOCC1", "solubility kinetic": "> 49.4"},
      {"smiles": "O=C(COC(=O)c1ccc(F)c(S(=O)(=O)N2CCOCC2)c1)NCc1ccc(Cl)cc1", "solubility kinetic": 7.1},
      {"smiles": "O=C(OCc1csc(-c2ccccc2)n1)c1ccc(O)cc1", "solubility kinetic": "< 0.7"},
      {"smiles": "Cc1c(N=Cc2c(O)n(C)c(=O)[nH]c2=O)c(=O)n(-c2ccccc2)n1C", "solubility kinetic": "> 53.3"},
      {"smiles": "COc1ccc(C(C)=O)cc1CC(=O)NCCCn1ccnc1", "solubility kinetic": "> 47.3"},
      {"smiles": "COc1ccc(NC(=S)NC(=O)Cc2ccccc2)c(OC)c1", "solubility kinetic": 1.7},
      {"smiles": "Cn1ccsc1=NC(=O)c1ccc(=O)[nH]c1", "solubility kinetic": 30.6},
      {"smiles": "O=C(CCCN1C(=O)c2cccc3cccc(c23)C1=O)NCc1ccco1", "solubility kinetic": 1.5},
      {"smiles": "O=C(Nc1nc2ccccc2[nH]1)NC1CCCCC1", "solubility kinetic": 1.6},
      {"smiles": "CN(C)CCOC(c1ccc(Cl)cc1)c1ccccn1.O=C(O)/C=C/C(=O)O", "note": "(stereo unspecified)", "solubility kinetic": "> 61"},
      {"smiles": "Cc1[nH]c(=O)[nH]c(=O)c1S(=O)(=O)Nc1ccc(F)cc1F", "solubility kinetic": "> 47.6"},
      {"smiles": "CSc1nsc(SCC(=O)Nc2ccccc2F)n1", "solubility kinetic": 38},
      {"smiles": "S=c1[nH]nc(Nc2ccccc2)s1", "solubility kinetic": "> 31.4"},
      {"smiles": "CC(=O)N1CCN(Cc2ccc(Cl)nc2)CC1", "solubility kinetic": "> 38.1"},
      {"smiles": "CC(C)C(OC(=O)c1ccccc1)c1nccc2ccccc12", "note": "(stereo unspecified)", "solubility kinetic": 6.9},
      {"smiles": "CC1CCCN(CCC(=O)c2ccc(Br)cc2)C1.Cl", "note": "(stereo unspecified)", "solubility kinetic": 33.8},
      {"smiles": "CC1=CC(=C(C#N)C#N)C=C(C)N1CCN1CCNCC1", "solubility kinetic": "> 42.5"},
      {"smiles": "COc1cc(C(=O)OCC(C)=O)c([N+](=O)[O-])cc1OC", "solubility kinetic": "> 42.5"},
      {"smiles": "Cl.O=C(Nc1ccccc1)N1CCNCC1", "solubility kinetic": 30.6},
      {"smiles": "Clc1ccccc1OCCCOc1cccc2cccnc12", "solubility kinetic": 3.9},
      {"smiles": "COC(=O)c1cc(OC)c(OC)cc1NC(=O)CSCc1c(C)noc1C", "solubility kinetic": 15.6},
      {"smiles": "Cc1ccc(NS(=O)(=O)c2ccc3c(c2)n(C)c(=O)n3C)cc1C", "solubility kinetic": 1.2},
      {"smiles": "COc1cc2c(cc1OC)/C(=C/C(=O)c1ccc(F)cc1)NCC2", "solubility kinetic": 25.7},
      {"smiles": "O=C(Nc1ccc(OCc2ccccc2Cl)cc1)c1cccnc1", "solubility kinetic": 1.8},
      {"smiles": "O=C(CNS(=O)(=O)c1c(F)cccc1F)NC1CCCc2ccccc21", "note": "(stereo unspecified)", "solubility kinetic": "> 57.1"},
      {"smiles": "CN1C(=O)C(=O)/C(=C(/O)c2ccccc2)C1c1ccc(Br)cc1", "note": "(stereo unspecified)", "solubility kinetic": "> 55.8"},
      {"smiles": "CN(C(=O)c1ccc(Br)o1)C1(C)CCS(=O)(=O)C1", "note": "(stereo unspecified)", "solubility kinetic": "> 50.4"},
      {"smiles": "CC1(C)CC(NC(=S)NC2CC2)CC(C)(C)N1", "solubility kinetic": "> 38.3"},
      {"smiles": "CCNc1ccc(S(=O)(=O)N(C)C)cc1[N+](=O)[O-]", "solubility kinetic": 23.1},
      {"smiles": "Cc1c(C(=O)N2CCN(c3ccccn3)CC2)oc2c(F)cccc12", "solubility kinetic": 33.2},
      {"smiles": "CC1=C([N+](=O)[O-])C(c2ccc3c(c2)OCO3)N(C)C(=O)N1C", "note": "(stereo unspecified)", "solubility kinetic": 36.4},
      {"smiles": "Br.COc1cccc(C(=O)CSc2nccn2C)c1", "solubility kinetic": "> 51.5"},
      {"smiles": "CCn1c(Cc2ccc(OC)cc2)nc2ccccc21", "solubility kinetic": "> 40"},
      {"smiles": "CCOC(=O)N1CCN(CC(=O)Nc2ccc(F)c(F)c2)CC1", "solubility kinetic": "> 49.1"},
      {"smiles": "O=C(Nc1nc2cc3c(cc2s1)OCO3)C1CCCCC1", "solubility kinetic": "< 0.3"},
      {"smiles": "O=C(c1cc2cc(F)ccc2[nH]1)N1CCN(c2ccc(F)cc2)CC1", "solubility kinetic": 0.3},
      {"smiles": "O=C(Nc1ncccc1O)c1ccc2c(c1)OCO2", "solubility kinetic": "> 38.7"},
      {"smiles": "Cc1ccc(CNS(=O)(=O)c2ccc([N+](=O)[O-])cc2)cc1", "solubility kinetic": 1.8},
      {"smiles": "CC(C)c1ccc(NC(=O)CCCN2C(=O)NC(C)(C)C2=O)cc1", "solubility kinetic": 37.8},
      {"smiles": "O=S(=O)(NCc1cccs1)c1ccccc1Cl", "solubility kinetic": "> 43.2"},
      {"smiles": "NC(N)=S", "solubility kinetic": "> 11.4"},
      {"smiles": "Cc1csc(SC(C)C(=O)Nc2ccc(F)cc2Cl)n1", "note": "(stereo unspecified)", "solubility kinetic": 44.9},
      {"smiles": "Cc1cc(=O)oc2c(CN3CCCC3)c(O)ccc12", "solubility kinetic": "> 38.9"},
      {"smiles": "CN1C(=O)Nc2cccc3cccc1c23", "solubility kinetic": 10.1},
      {"smiles": "COCCN1CCn2c(nc3cc([N+](=O)[O-])ccc32)C1", "solubility kinetic": "> 41.4"},
      {"smiles": "COc1ccc(/C=C(\\C#N)C(=O)OC2CCOC2=O)cc1", "note": "(stereo unspecified)", "solubility kinetic": "> 43.1"},
      {"smiles": "CC(=O)N1CCN(C(=S)NC(=O)c2ccc(F)cc2)CC1", "solubility kinetic": "> 46.4"},
      {"smiles": "COc1ccc2cc(/C=N/O)c(Cl)nc2c1", "solubility kinetic": 0.9},
      {"smiles": "O=C(CCc1nc2ccccc2c(=O)[nH]1)N1CCN(c2ccccc2Cl)CC1", "solubility kinetic": 3.2},
      {"smiles": "COc1ccc(OC)c(C(=O)c2coc3ccc(O)c(CN(C)C)c23)c1.Cl", "solubility kinetic": "> 58.8"},
      {"smiles": "CC(OC(=O)c1ccc(Cl)nc1)C(=O)Nc1ccc2c(c1)OCO2", "note": "(stereo unspecified)", "solubility kinetic": 11.9},
      {"smiles": "O=C(Nc1cccnc1Cl)c1cc(-c2ccc(F)cc2)on1", "solubility kinetic": "< 0.2"},
      {"smiles": "CCc1cccc(NS(=O)(=O)c2csc(C(N)=O)c2)c1", "solubility kinetic": "> 46.6"},
      {"smiles": "Cc1nc(SC(C(N)=O)c2ccccc2)c(C#N)c(C)c1C", "note": "(stereo unspecified)", "solubility kinetic": 1},
      {"smiles": "Cc1ccnc(N2CCCC(C(=O)Nc3ccc(C)c(C)c3)C2)n1", "note": "(stereo unspecified)", "solubility kinetic": 1.4},
      {"smiles": "O=C1CC(N2CCc3ccccc32)C(=O)N1c1ccccc1", "note": "(stereo unspecified)", "solubility kinetic": 37.3},
      {"smiles": "CC(C)(C)c1ccc(-c2noc(-c3ccno3)n2)cc1", "solubility kinetic": "< 0.2"},
      {"smiles": "COc1cccc(CSc2nc3ccncc3[nH]2)c1", "solubility kinetic": "> 40.7"},
      {"smiles": "COC(OC)c1ccc(C#N)c(SCc2ccc(C)cc2)n1", "solubility kinetic": 0.4},
      {"smiles": "CCCC(CNC(=O)COC(=O)C1=NNC(=O)CC1)c1ccc(Cl)cc1Cl", "note": "(stereo unspecified)", "solubility kinetic": "> 62.1"},
      {"smiles": "N#Cc1ccc(S(=O)(=O)NC2CC2)cc1", "solubility kinetic": "> 33.3"},
      {"smiles": "O=C1OC(c2ccc3c(c2)OCO3)=N/C1=C\\c1ccc(C(=O)O)cc1", "solubility kinetic": "> 50.6"},
      {"smiles": "CC(NC(=O)COC(=O)C1CCCCC1)c1ccccc1", "note": "(stereo unspecified)", "solubility kinetic": "> 43.4"},
      {"smiles": "Cc1ccc(-c2cc(C(=O)NC3CCCC3)no2)cc1", "solubility kinetic": 0.5},
      {"smiles": "O=C1OC(Nc2ccc(F)c([N+](=O)[O-])c2)c2ccccc21", "note": "(stereo unspecified)", "solubility kinetic": 42.6},
      {"smiles": "COc1ccc(S(=O)(=O)N2CCCCCC2)cc1C(=O)NCc1ccco1", "solubility kinetic": 46.5},
      {"smiles": "O=C(N/N=C/c1cccnc1)c1cccc(Cl)c1", "solubility kinetic": "> 39"},
      {"smiles": "COc1ccc(N=C(C)c2c(O)[nH]c(=O)[nH]c2=O)cc1", "solubility kinetic": 5},
      {"smiles": "O=C(NCc1ccccn1)Nc1cccc([N+](=O)[O-])c1", "solubility kinetic": "> 40.8"},
      {"smiles": "CCOC(=O)c1[nH]c(C)c(C(=O)OC)c1C", "solubility kinetic": "> 33.8"},
      {"smiles": "Cc1ccc(NC(=S)NCc2ccco2)c(C)c1", "solubility kinetic": "> 39.1"},
      {"smiles": "C[N+](C)(C)CC#CCOC(=O)Nc1cccc(Cl)c1.[Cl-]", "solubility kinetic": "> 47.6"},
      {"smiles": "O=C(CN1C(=O)COc2ccccc21)NCCCN1CCCC1", "solubility kinetic": "> 47.6"},
      {"smiles": "COc1cc(NC(=O)Cc2ccccc2)c(C(=O)O)cc1OC", "solubility kinetic": 43.5},
      {"smiles": "COc1ccc(NS(=O)(=O)c2cccc(C(=O)NCC(c3cccs3)N3CCOCC3)c2)cc1", "note": "(stereo unspecified)", "solubility kinetic": 71.3},
      {"smiles": "Cc1ccccc1NC(=O)CN1CCOCC1.Cl", "solubility kinetic": "> 40.6"},
      {"smiles": "Cc1ccc(N2C(=O)CC(Cc3cc(C)cc(C)c3)C2=O)cc1", "note": "(stereo unspecified)", "solubility kinetic": 8.8},
      {"smiles": "CCn1c(/C=C/c2ccc(O)c(O)c2)nc2ccccc2c1=O", "solubility kinetic": 27},
      {"smiles": "O=S(=O)(Nc1cccc2ccccc12)c1ccccc1", "solubility kinetic": 8.6},
      {"smiles": "Cc1nc(NC(=O)CN2CC(C)OC(C)C2)sc1C(=O)N(C)C", "note": "(stereo unspecified)", "solubility kinetic": 44.2},
      {"smiles": "Nc1ccc(-c2ncc(-c3ccccc3)o2)cc1", "solubility kinetic": 4.3},
      {"smiles": "O=C(/C=C/c1ccco1)NC(=S)Nc1ccc(C(=O)O)cc1", "solubility kinetic": "> 47.4"},
      {"smiles": "Cc1csc(NC(=O)CN2C(=O)c3ccccc3C2=O)c1C(N)=O", "solubility kinetic": 13},
      {"smiles": "CSc1ncccc1C(=O)OCC(=O)Nc1ccc2c(c1)OCO2", "solubility kinetic": 2.7},
      {"smiles": "O=C(Nc1ccccc1F)NC1CCCc2ccccc21", "note": "(stereo unspecified)", "solubility kinetic": 2},
      {"smiles": "On1c(-c2ccc(Cl)cc2Cl)nc2ncccc21", "solubility kinetic": "> 42"}
    ]}
  ]
}
